From the supplement of paper PMC10307832

Columns and labels:
Test in all cases: relative viability (nuclei count vs DMSO), 5 days (fraction); higher = more cells survive
AT9283 + Phenformin = compound: O=C(Nc1c[nH]nc1-c1nc2ccc(CN3CCOCC3)cc2[nH]1)NC1CC1 [AT9283] + N=C(N)NC(=N)NCCc1ccccc1 [Phenformin] (partner 250 µM)
In short: (§1)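 Relative viability is defined as nuclei in treated wells over nuclei in vehicle wells. Duplicate plates were run and medians reported. Lung cancer cell lines in 1536-well plates were dosed by pin tool one day after seeding, with one drug or with a fixed anchor-drug dose plus five library-drug doses (not always all listed) in √10 steps, and nuclei were counted after 5 days.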

Erlotinib + Pictilisib = compound: C#Cc1cccc(Nc2ncnc3cc(OCCOC)c(OCCOC)cc23)c1 [Erlotinib] + CS(=O)(=O)N1CCN(Cc2cc3nc(-c4cccc5[nH]ncc45)nc(N4CCOCC4)c3s2)CC1 [Pictilisib] (partner 1 µM)
In short: as §1

Erlotinib + OSI-027 = compound: C#Cc1cccc(Nc2ncnc3cc(OCCOC)c(OCCOC)cc23)c1 [Erlotinib] + COc1cccc2cc(-c3nc([C@H]4CC[C@H](C(=O)O)CC4)n4ncnc(N)c34)[nH]c12 [OSI-027] (partner 0.5 µM)
In short: as §1

AT9283 + Alpelisib = compound: O=C(Nc1c[nH]nc1-c1nc2ccc(CN3CCOCC3)cc2[nH]1)NC1CC1 [AT9283] + Cc1nc(NC(=O)N2CCC[C@H]2C(N)=O)sc1-c1ccnc(C(C)(C)C(F)(F)F)c1 [Alpelisib] (partner 2 µM)
In short: as §1

Erlotinib + Dasatinib = compound: C#Cc1cccc(Nc2ncnc3cc(OCCOC)c(OCCOC)cc23)c1 [Erlotinib] + Cc1nc(Nc2ncc(C(=O)Nc3c(C)cccc3Cl)s2)cc(N2CCN(CCO)CC2)n1 [Dasatinib] (partner 0.075 µM)
In short: as §1

Row | Cell Line | relative viability (AT9283 + Phenformin; first compound 0.003 µM) | relative viability (AT9283 + Phenformin; first compound 0.03 µM) | relative viability (AT9283 + Phenformin; first compound 0.09487 µM) | relative viability (AT9283 + Phenformin; first compound 0.3 µM) | relative viability (Erlotinib + Pictilisib; first compound 0.02 µM) | relative viability (Erlotinib + Pictilisib; first compound 0.2 µM) | relative viability (Erlotinib + Pictilisib; first compound 0.6325 µM) | relative viability (Erlotinib + Pictilisib; first compound 2 µM) | relative viability (Erlotinib + OSI-027; first compound 0.02 µM) | relative viability (Erlotinib + OSI-027; first compound 0.2 µM) | relative viability (Erlotinib + OSI-027; first compound 0.6325 µM) | relative viability (Erlotinib + OSI-027; first compound 2 µM) | relative viability (AT9283 + Alpelisib; first compound 0.003 µM) | relative viability (AT9283 + Alpelisib; first compound 0.03 µM) | relative viability (AT9283 + Alpelisib; first compound 0.09487 µM) | relative viability (AT9283 + Alpelisib; first compound 0.3 µM) | relative viability (Erlotinib + Dasatinib; first compound 0.02 µM) | relative viability (Erlotinib + Dasatinib; first compound 0.2 µM) | relative viability (Erlotinib + Dasatinib; first compound 0.6325 µM) | relative viability (Erlotinib + Dasatinib; first compound 2 µM)
1 | HCC-78 | 0.611 | 0.511 | 0.333 | 0.26 | 0.195 | 0.207 | 0.218 | 0.21 | 0.333 | 0.359 | 0.379 | 0.281 | 0.286 | 0.275 | 0.165 | 0.18 | 0.319 | 0.36 | 0.364 | 0.225
2 | HCC-366 | 0.609 | 0.657 | 0.0853 | 0.0845 | 0.185 | 0.0789 | 0.12 | 0.137 | 0.969 | 0.805 | 0.468 | 0.438 | 0.48 | 0.17 | 0.122 | 0.0346 | 0.61 | 0.606 | 0.637 | 0.522
3 | HCC-827 | 0.399 | 0.352 | 0.356 | 0.196 | 0.374 | 0.241 | 0.273 | 0.329 | 0.411 | 0.15 | 0.112 | 0.126 | 0.96 | 0.856 | 0.349 | 0.212 | 0.148 | 0.152 | 0.195 | 0.126
4 | HOP-62 | 0.694 | 0.572 | 0.418 | 0.25 | 1.08 | 0.725 | 0.788 | 0.625 | 0.917 | 0.848 | 1.04 | 0.754 | 1.11 | 0.991 | 0.207 | 0.219 | 0.695 | 0.583 |  | 0.567
5 | IA-LM |  |  |  |  | 0.338 |  | 0.348 | 0.13 |  |  |  |  | 0.891 | 0.418 | 0.199 | 0.0959 |  |  |  | 
6 | LC-2-ad | 0.449 | 0.363 | 0.224 | 0.193 | 0.557 | 0.427 | 0.429 | 0.303 |  | 0.837 | 0.725 | 0.475 | 0.933 | 0.319 | 0.106 | 0.107 | 0.724 | 0.466 | 0.589 | 0.452
7 | LCLC-97TM1 | 0.445 | 0.282 | 0.152 | 0.137 | 0.171 |  | 0.226 | 0.211 | 0.697 | 0.553 | 0.504 | 0.489 | 0.198 | 0.151 | 0.11 | 0.111 | 0.749 | 0.794 | 0.967 | 0.782
8 | LCLC-103H | 0.295 | 0.356 | 0.331 | 0.205 | 0.614 | 0.587 | 0.753 | 0.538 | 0.537 | 0.469 | 0.43 | 0.417 | 0.89 | 1.09 | 1.11 | 0.332 |  | 0.6 | 0.478 | 0.399
9 | LK-2 | 0.516 | 0.156 | 0.136 | 0.175 | 0.649 | 0.519 | 0.735 | 0.599 | 0.202 | 0.211 | 0.21 | 0.192 | 0.936 | 0.379 | 0.21 | 0.236 | 0.318 | 0.225 | 0.306 | 0.268
10 | LOU-NH91 | 0.658 | 0.673 | 0.454 | 0.371 | 0.471 | 0.505 | 0.465 | 0.475 | 0.506 | 0.47 | 0.473 | 0.43 | 0.695 | 0.684 | 0.531 | 0.427 | 0.459 | 0.434 | 0.415 | 0.365
11 | LU99A | 0.804 | 0.441 | 0.17 | 0.199 | 0.302 | 0.31 | 0.347 | 0.281 | 0.295 | 0.303 | 0.284 | 0.259 | 0.489 | 0.222 | 0.144 | 0.152 | 0.556 | 0.474 | 0.584 | 0.475
12 | LXF-289 | 0.528 | 0.447 | 0.0782 | 0.0825 | 0.775 |  | 0.798 | 0.704 | 0.79 | 0.766 | 0.721 | 0.551 | 0.964 | 1.01 | 0.132 | 0.105 | 0.295 | 0.274 | 0.239 | 0.183
13 | NCI-H522 | 0.555 | 0.481 | 0.44 | 0.377 |  |  |  |  | 0.749 | 0.672 | 0.816 | 0.66 |  |  |  |  | 0.812 | 0.784 | 1.06 | 0.85
14 | NCI-H1299 |  |  |  |  | 0.894 | 0.839 | 0.918 | 0.55 |  |  |  |  | 1.08 | 1.04 | 0.476 | 0.352 |  |  |  | 
15 | NCI-H1623 | 0.597 | 0.578 | 0.55 | 0.336 |  |  |  |  | 0.398 | 0.366 | 0.297 | 0.256 |  |  |  |  | 0.562 | 0.517 | 0.315 | 0.366
16 | NCI-H1648 |  |  |  |  |  |  |  |  | 0.251 | 0.283 | 0.246 | 0.298 |  |  |  |  |  |  |  | 
17 | NCI-H1650 | 0.491 | 0.385 | 0.223 | 0.175 | 0.483 |  | 0.578 | 0.47 | 0.533 | 0.515 | 0.472 | 0.33 |  |  |  |  | 0.283 | 0.265 | 0.282 | 0.325
18 | NCI-H1703 |  |  |  |  | 0.233 | 0.218 | 0.29 | 0.243 |  |  |  |  | 0.361 | 0.214 | 0.174 | 0.223 |  |  |  | 
19 | NCI-H2342 | 0.592 | 0.423 | 0.534 | 0.341 |  |  |  |  | 0.596 | 0.635 | 0.556 | 0.55 |  |  |  |  | 0.289 | 0.323 | 0.304 | 0.26
20 | SW 900 | 0.63 | 0.595 | 0.486 | 0.256 |  |  |  |  | 0.584 | 0.598 | 0.642 | 0.374 |  |  |  |  | 0.655 | 0.506 | 0.517 | 0.374
